From the kinase profiling compilation of Christmann-Franck et al. (2016)

Assays:
PRKACA (human) = PRKACA (human) (UniProt P17612)
IKBKB (human) = IKBKB (human) (UniProt O14920)
[1] = system: RPS6KB1 (human), P23443 [T412E]
MAPK11 (human) = MAPK11 (human) (UniProt Q15759)
MST4 (human) = MST4 (human) (UniProt Q9P289)
PIM3 (human) = PIM3 (human) (UniProt Q86V86)
TBK1 (human) = TBK1 (human) (UniProt Q9UHD2)
MAPK12 (human) = MAPK12 (human) (UniProt P53778)
MAPK8 (human) = MAPK8 (human) (UniProt P45983)
CSNK2A1 (human) = CSNK2A1 (human) (UniProt P68400)
CHEK1 (human) = CHEK1 (human) (UniProt O14757)
PRKCA (human) = PRKCA (human) (UniProt P17252)
GSK3B (human) = GSK3B (human) (UniProt P49841)
SRPK1 (human) = SRPK1 (human) (UniProt Q96SB4)
MAPKAPK2 (human) = MAPKAPK2 (human) (UniProt P49137)
MAPKAPK5 (human) = MAPKAPK5 (human) (UniProt Q8IW41)
MAP2K1 (human) = MAP2K1 (human) (UniProt Q02750)
SYK (human) = SYK (human) (UniProt P43405)
IGF1R (human) = IGF1R (human) (UniProt P08069)
FLT1 (human) = FLT1 (human) (UniProt P17948)
MAPK13 (human) = MAPK13 (human) (UniProt O15264)
EPHA2 (human) = EPHA2 (human) (UniProt P29317)
MAPK14 (human) = MAPK14 (human) (UniProt Q16539)
YES1 (human) = YES1 (human) (UniProt P07947)
CAMKK2 (human) = CAMKK2 (human) (UniProt Q96RR4)
CDK2 CCNA2 (human) = CDK2 CCNA2 (human) (UniProt P20248+P24941)
PIM2 (human) = PIM2 (human) (UniProt Q9P1W9)
MAPK15 (human) = MAPK15 (human) (UniProt Q8TD08)
LCK (mouse) = details: accession and sequence are those of the human protein
PLK1 (human) = PLK1 (human) (UniProt P53350)
BTK (human) = BTK (human) (UniProt Q06187)
IKBKE (human) = IKBKE (human) (UniProt Q14164)
EEF2K (human) = EEF2K (human) (UniProt O00418)
MAPK1 (human) = MAPK1 (human) (UniProt P28482)
Chain of MAPK1 (human) (P28482 whole entry, looked up): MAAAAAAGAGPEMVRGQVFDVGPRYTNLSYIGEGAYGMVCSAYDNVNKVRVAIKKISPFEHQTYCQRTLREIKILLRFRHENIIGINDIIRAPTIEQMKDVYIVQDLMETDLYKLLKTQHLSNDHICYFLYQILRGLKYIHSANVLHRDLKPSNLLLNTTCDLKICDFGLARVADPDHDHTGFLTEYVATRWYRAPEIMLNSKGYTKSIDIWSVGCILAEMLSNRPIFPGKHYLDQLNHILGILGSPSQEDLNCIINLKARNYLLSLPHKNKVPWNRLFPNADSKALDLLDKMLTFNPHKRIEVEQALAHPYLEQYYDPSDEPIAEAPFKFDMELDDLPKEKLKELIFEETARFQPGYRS

Chain of PLK1 (human) (P53350 whole entry, looked up): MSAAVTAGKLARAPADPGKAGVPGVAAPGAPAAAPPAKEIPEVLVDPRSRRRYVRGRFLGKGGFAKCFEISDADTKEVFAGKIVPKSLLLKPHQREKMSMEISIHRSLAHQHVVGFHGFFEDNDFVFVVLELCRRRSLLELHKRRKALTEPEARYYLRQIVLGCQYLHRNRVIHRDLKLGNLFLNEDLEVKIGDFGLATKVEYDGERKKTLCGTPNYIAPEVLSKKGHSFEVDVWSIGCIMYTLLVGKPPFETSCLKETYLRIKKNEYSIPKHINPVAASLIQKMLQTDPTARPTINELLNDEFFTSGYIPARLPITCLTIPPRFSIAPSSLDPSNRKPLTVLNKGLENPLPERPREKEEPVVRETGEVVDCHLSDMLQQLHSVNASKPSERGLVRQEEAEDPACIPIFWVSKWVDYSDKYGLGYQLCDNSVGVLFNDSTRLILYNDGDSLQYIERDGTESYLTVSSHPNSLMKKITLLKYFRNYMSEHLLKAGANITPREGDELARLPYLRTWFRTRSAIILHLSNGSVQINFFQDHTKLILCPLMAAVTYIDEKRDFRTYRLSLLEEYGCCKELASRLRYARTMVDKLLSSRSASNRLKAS
Chain of MAPKAPK2 (human) (P49137 whole entry, looked up): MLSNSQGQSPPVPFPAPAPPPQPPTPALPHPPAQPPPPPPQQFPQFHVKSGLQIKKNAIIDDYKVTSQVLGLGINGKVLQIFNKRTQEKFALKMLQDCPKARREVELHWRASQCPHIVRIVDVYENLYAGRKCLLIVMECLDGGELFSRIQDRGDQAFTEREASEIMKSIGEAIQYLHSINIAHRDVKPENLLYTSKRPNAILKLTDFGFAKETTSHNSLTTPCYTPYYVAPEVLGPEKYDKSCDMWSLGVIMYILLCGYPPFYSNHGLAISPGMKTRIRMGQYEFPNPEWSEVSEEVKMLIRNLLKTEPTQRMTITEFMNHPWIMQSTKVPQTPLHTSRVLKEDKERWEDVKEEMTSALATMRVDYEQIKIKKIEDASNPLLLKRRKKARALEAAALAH
Chain of PIM2 (human) (Q9P1W9 whole entry, looked up): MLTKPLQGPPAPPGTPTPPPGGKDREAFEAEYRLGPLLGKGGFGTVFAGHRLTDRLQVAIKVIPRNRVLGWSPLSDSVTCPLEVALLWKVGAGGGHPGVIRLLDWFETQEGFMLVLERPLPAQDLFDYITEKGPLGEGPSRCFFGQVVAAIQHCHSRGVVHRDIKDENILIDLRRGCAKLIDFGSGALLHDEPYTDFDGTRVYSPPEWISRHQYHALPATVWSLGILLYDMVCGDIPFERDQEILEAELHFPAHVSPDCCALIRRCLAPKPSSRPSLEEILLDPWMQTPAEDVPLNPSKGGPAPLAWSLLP
Chain of CAMKK2 (human) (Q96RR4 whole entry, looked up): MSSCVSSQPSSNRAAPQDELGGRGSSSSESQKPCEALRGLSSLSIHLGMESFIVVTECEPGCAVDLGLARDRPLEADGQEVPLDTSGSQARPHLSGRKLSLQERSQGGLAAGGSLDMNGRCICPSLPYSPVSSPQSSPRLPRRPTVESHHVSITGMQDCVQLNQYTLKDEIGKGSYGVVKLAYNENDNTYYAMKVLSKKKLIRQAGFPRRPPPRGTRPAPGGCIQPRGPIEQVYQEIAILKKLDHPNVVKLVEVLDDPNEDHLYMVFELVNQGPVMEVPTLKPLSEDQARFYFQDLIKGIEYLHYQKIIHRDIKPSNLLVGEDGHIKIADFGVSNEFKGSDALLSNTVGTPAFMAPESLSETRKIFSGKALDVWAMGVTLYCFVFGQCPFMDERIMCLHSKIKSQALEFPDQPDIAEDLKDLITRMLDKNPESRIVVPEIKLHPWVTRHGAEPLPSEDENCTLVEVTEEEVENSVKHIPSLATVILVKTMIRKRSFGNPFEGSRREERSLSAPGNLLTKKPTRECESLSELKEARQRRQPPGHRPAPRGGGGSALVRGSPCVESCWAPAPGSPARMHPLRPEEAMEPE
Chain of MAPK11 (human) (Q15759 whole entry, looked up): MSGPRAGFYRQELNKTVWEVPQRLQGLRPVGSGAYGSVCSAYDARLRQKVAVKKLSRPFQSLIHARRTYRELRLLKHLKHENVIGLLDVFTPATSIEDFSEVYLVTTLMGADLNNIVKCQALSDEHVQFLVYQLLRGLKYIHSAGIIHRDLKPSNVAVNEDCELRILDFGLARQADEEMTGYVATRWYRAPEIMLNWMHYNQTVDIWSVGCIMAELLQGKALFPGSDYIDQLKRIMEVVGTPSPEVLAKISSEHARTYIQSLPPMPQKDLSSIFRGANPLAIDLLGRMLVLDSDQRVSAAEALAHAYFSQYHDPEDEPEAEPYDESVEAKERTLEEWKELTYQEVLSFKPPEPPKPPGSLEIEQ
Chain of MAPK15 (human) (Q8TD08 whole entry, looked up): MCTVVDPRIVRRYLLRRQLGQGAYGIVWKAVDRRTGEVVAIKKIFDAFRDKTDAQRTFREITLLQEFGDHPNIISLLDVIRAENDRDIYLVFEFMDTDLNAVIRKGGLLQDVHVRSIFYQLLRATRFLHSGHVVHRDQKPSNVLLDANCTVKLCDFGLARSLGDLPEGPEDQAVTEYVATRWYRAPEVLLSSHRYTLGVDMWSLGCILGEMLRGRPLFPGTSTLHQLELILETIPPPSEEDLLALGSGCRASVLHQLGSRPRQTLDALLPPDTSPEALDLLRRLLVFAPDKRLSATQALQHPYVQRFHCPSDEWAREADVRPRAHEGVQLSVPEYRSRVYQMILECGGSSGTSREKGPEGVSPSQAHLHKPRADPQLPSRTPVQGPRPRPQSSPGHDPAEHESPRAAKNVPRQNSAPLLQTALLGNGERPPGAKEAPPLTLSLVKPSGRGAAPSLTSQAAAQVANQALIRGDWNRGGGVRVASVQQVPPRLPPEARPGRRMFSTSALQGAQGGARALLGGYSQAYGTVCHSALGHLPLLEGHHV
Chain of CHEK1 (human) (O14757 whole entry, looked up): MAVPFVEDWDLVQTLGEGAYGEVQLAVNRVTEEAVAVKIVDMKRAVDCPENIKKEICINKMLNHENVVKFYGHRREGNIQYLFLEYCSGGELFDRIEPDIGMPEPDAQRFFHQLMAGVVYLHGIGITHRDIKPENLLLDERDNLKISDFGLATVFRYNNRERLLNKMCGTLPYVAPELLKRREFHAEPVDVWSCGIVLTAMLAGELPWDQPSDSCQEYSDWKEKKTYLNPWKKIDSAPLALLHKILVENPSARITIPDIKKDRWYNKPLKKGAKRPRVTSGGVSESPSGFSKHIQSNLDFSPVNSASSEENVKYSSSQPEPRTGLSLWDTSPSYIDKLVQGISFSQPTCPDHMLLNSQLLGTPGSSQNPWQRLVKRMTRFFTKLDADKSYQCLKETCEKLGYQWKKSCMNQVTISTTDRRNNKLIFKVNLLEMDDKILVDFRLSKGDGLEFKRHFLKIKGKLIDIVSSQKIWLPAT
Chain of CSNK2A1 (human) (P68400 whole entry, looked up): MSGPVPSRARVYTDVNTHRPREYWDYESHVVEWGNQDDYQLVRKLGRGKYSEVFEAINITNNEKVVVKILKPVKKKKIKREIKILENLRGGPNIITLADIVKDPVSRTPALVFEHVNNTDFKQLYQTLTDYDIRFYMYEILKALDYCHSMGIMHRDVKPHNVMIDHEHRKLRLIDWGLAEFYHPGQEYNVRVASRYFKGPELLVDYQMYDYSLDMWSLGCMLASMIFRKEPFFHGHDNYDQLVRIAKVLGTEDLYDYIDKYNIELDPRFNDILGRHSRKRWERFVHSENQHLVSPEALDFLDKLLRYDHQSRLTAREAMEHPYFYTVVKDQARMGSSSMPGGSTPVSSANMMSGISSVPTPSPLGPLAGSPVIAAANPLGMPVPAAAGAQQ
Chain of TBK1 (human) (Q9UHD2 whole entry, looked up): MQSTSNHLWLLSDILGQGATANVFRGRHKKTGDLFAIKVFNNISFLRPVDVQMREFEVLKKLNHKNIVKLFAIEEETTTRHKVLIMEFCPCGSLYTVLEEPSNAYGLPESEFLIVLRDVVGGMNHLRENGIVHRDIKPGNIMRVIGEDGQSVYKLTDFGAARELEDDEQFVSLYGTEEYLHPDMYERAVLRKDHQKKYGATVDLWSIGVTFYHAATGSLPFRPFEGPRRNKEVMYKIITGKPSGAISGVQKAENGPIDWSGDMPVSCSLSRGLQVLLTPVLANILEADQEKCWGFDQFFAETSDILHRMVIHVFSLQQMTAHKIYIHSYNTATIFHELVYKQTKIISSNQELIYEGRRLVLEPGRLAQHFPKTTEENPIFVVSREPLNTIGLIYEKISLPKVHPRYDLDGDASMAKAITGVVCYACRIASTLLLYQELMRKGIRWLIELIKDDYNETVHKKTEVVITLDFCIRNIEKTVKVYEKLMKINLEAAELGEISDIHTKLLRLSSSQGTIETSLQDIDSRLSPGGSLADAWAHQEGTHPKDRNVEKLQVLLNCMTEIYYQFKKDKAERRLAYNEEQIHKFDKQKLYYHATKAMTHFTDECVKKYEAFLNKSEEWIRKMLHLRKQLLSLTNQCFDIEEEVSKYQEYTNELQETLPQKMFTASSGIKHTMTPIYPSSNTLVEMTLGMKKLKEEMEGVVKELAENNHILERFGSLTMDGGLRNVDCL

CC(C)n1nc(-c2cc3cc(O)ccc3[nH]2)c2c(N)ncnc21
per cent of control (PRKACA (human); compound 1.0 µM): 94%
per cent of control (PRKACA (human); compound 10.0 µM): 45%
per cent of control (IKBKB (human); compound 1.0 µM): 85%
per cent of control (IKBKB (human); compound 10.0 µM): 84%
per cent of control ([1]; compound 1.0 µM): 80%
per cent of control ([1]; compound 10.0 µM): 50%
per cent of control (MAPK11 (human); compound 1.0 µM): 91%
per cent of control (MAPK11 (human); compound 10.0 µM): 77%
per cent of control (MST4 (human); compound 1.0 µM): 42%
per cent of control (MST4 (human); compound 10.0 µM): 13%
per cent of control (PIM3 (human); compound 1.0 µM): 59%
per cent of control (PIM3 (human); compound 10.0 µM): 13%
per cent of control (TBK1 (human); compound 1.0 µM): 97%
per cent of control (TBK1 (human); compound 10.0 µM): 95%
per cent of control (MAPK12 (human); compound 1.0 µM): 96%
per cent of control (MAPK12 (human); compound 10.0 µM): 72%
per cent of control (MAPK8 (human); compound 1.0 µM): 94%
per cent of control (MAPK8 (human); compound 10.0 µM): 103%
per cent of control (CSNK2A1 (human); compound 1.0 µM): 72%
per cent of control (CSNK2A1 (human); compound 10.0 µM): 40%
per cent of control (CHEK1 (human); compound 1.0 µM): 91%
per cent of control (CHEK1 (human); compound 10.0 µM): 34%
per cent of control (PRKCA (human); compound 1.0 µM): 13%
per cent of control (PRKCA (human); compound 10.0 µM): 9%
per cent of control (GSK3B (human); compound 1.0 µM): 103%
per cent of control (GSK3B (human); compound 10.0 µM): 60%
per cent of control (SRPK1 (human); compound 1.0 µM): 86%
per cent of control (SRPK1 (human); compound 10.0 µM): 63%
per cent of control (MAPKAPK2 (human); compound 1.0 µM): 96%
per cent of control (MAPKAPK2 (human); compound 10.0 µM): 94%
per cent of control (MAPKAPK5 (human); compound 1.0 µM): 97%
per cent of control (MAPKAPK5 (human); compound 10.0 µM): 92%
per cent of control (MAP2K1 (human); compound 1.0 µM): 25%
per cent of control (MAP2K1 (human); compound 10.0 µM): 10%
per cent of control (SYK (human); compound 1.0 µM): 89%
per cent of control (SYK (human); compound 10.0 µM): 61%
per cent of control (IGF1R (human); compound 1.0 µM): 103%
per cent of control (IGF1R (human); compound 10.0 µM): 89%
per cent of control (FLT1 (human); compound 1.0 µM): 11%
per cent of control (FLT1 (human); compound 10.0 µM): 2%
per cent of control (MAPK13 (human); compound 1.0 µM): 97%
per cent of control (MAPK13 (human); compound 10.0 µM): 73%
per cent of control (EPHA2 (human); compound 1.0 µM): 12%
per cent of control (EPHA2 (human); compound 10.0 µM): 3%
per cent of control (MAPK14 (human); compound 1.0 µM): 95%
per cent of control (MAPK14 (human); compound 10.0 µM): 90%
per cent of control (YES1 (human); compound 1.0 µM): -2%
per cent of control (YES1 (human); compound 10.0 µM): -8%
per cent of control (CAMKK2 (human); compound 1.0 µM): 72%
per cent of control (CAMKK2 (human); compound 10.0 µM): 30%
per cent of control (CDK2 CCNA2 (human); compound 1.0 µM): 78%
per cent of control (CDK2 CCNA2 (human); compound 10.0 µM): 40%
per cent of control (PIM2 (human); compound 1.0 µM): 110%
per cent of control (PIM2 (human); compound 10.0 µM): 36%
per cent of control (MAPK15 (human); compound 1.0 µM): 50%
per cent of control (MAPK15 (human); compound 10.0 µM): 6%
per cent of control (LCK (mouse); compound 1.0 µM): 13%
per cent of control (LCK (mouse); compound 10.0 µM): 4%
per cent of control (PLK1 (human); compound 1.0 µM): 89%
per cent of control (PLK1 (human); compound 10.0 µM): 47%
per cent of control (BTK (human); compound 1.0 µM): 20%
per cent of control (BTK (human); compound 10.0 µM): 5%
per cent of control (IKBKE (human); compound 1.0 µM): 86%
per cent of control (IKBKE (human); compound 10.0 µM): 64%
per cent of control (EEF2K (human); compound 1.0 µM): 115%
per cent of control (EEF2K (human); compound 10.0 µM): 106%
per cent of control (MAPK1 (human); compound 1.0 µM): 106%
per cent of control (MAPK1 (human); compound 10.0 µM): 88%

COc1ccc(-c2ccc3c(N4CCOCC4)nc(N4C[C@@H](C)O[C@@H](C)C4)nc3n2)cc1CO
per cent of control (PRKACA (human); compound 1.0 µM): 115%
per cent of control (PRKACA (human); compound 10.0 µM): 85%
per cent of control (IKBKB (human); compound 1.0 µM): 104%
per cent of control (IKBKB (human); compound 10.0 µM): 89%
per cent of control ([1]; compound 1.0 µM): 104%
per cent of control ([1]; compound 10.0 µM): 98%
per cent of control (MAPK11 (human); compound 1.0 µM): 106%
per cent of control (MAPK11 (human); compound 10.0 µM): 83%
per cent of control (MST4 (human); compound 1.0 µM): 87%
per cent of control (MST4 (human); compound 10.0 µM): 86%
per cent of control (PIM3 (human); compound 1.0 µM): 114%
per cent of control (PIM3 (human); compound 10.0 µM): 75%
per cent of control (TBK1 (human); compound 1.0 µM): 97%
per cent of control (TBK1 (human); compound 10.0 µM): 89%
per cent of control (MAPK12 (human); compound 1.0 µM): 89%
per cent of control (MAPK12 (human); compound 10.0 µM): 91%
per cent of control (MAPK8 (human); compound 1.0 µM): 80%
per cent of control (MAPK8 (human); compound 10.0 µM): 93%
per cent of control (CSNK2A1 (human); compound 1.0 µM): 104%
per cent of control (CSNK2A1 (human); compound 10.0 µM): 85%
per cent of control (CHEK1 (human); compound 1.0 µM): 87%
per cent of control (CHEK1 (human); compound 10.0 µM): 86%
per cent of control (PRKCA (human); compound 1.0 µM): 106%
per cent of control (PRKCA (human); compound 10.0 µM): 86%
per cent of control (GSK3B (human); compound 1.0 µM): 95%
per cent of control (GSK3B (human); compound 10.0 µM): 91%
per cent of control (SRPK1 (human); compound 1.0 µM): 101%
per cent of control (SRPK1 (human); compound 10.0 µM): 94%
per cent of control (MAPKAPK2 (human); compound 1.0 µM): 98%
per cent of control (MAPKAPK2 (human); compound 10.0 µM): 81%
per cent of control (MAPKAPK5 (human); compound 1.0 µM): 67%
per cent of control (MAPKAPK5 (human); compound 10.0 µM): 87%
per cent of control (MAP2K1 (human); compound 1.0 µM): 96%
per cent of control (MAP2K1 (human); compound 10.0 µM): 43%
per cent of control (SYK (human); compound 1.0 µM): 88%
per cent of control (SYK (human); compound 10.0 µM): 83%
per cent of control (IGF1R (human); compound 1.0 µM): 117%
per cent of control (IGF1R (human); compound 10.0 µM): 89%
per cent of control (FLT1 (human); compound 1.0 µM): 92%
per cent of control (FLT1 (human); compound 10.0 µM): 92%
per cent of control (MAPK13 (human); compound 1.0 µM): 72%
per cent of control (MAPK13 (human); compound 10.0 µM): 87%
per cent of control (EPHA2 (human); compound 1.0 µM): 108%
per cent of control (EPHA2 (human); compound 10.0 µM): 96%
per cent of control (MAPK14 (human); compound 1.0 µM): 101%
per cent of control (MAPK14 (human); compound 10.0 µM): 96%
per cent of control (YES1 (human); compound 1.0 µM): 94%
per cent of control (YES1 (human); compound 10.0 µM): 90%
per cent of control (CAMKK2 (human); compound 1.0 µM): 108%
per cent of control (CAMKK2 (human); compound 10.0 µM): 94%
per cent of control (CDK2 CCNA2 (human); compound 1.0 µM): 89%
per cent of control (CDK2 CCNA2 (human); compound 10.0 µM): 90%
per cent of control (PIM2 (human); compound 1.0 µM): 86%
per cent of control (PIM2 (human); compound 10.0 µM): 78%
per cent of control (MAPK15 (human); compound 1.0 µM): 88%
per cent of control (MAPK15 (human); compound 10.0 µM): 92%
per cent of control (LCK (mouse); compound 1.0 µM): 69%
per cent of control (LCK (mouse); compound 10.0 µM): 104%
per cent of control (PLK1 (human); compound 1.0 µM): 76%
per cent of control (PLK1 (human); compound 10.0 µM): 94%
per cent of control (BTK (human); compound 1.0 µM): 85%
per cent of control (BTK (human); compound 10.0 µM): 81%
per cent of control (IKBKE (human); compound 1.0 µM): 99%
per cent of control (IKBKE (human); compound 10.0 µM): 100%
per cent of control (EEF2K (human); compound 1.0 µM): 88%
per cent of control (EEF2K (human); compound 10.0 µM): 108%
per cent of control (MAPK1 (human); compound 1.0 µM): 102%
per cent of control (MAPK1 (human); compound 10.0 µM): 92%
